Source: patent US20070112000A1, “Chemical compounds” (AstraZeneca R&D Alderley, priority 2003, published 2007)

Target: T1, human 11βHSD1 enzyme (Homo sapiens, UniProt P28845)
T1 construct: stably transfected with a construct containing fill-length human 11βHSD1 enzyme (in pCMVHyg); expressed in transfected cells; host or cells: HeLa cells (human cervical carcinoma) stably carrying the GRE4-β-galactosidase reporter and 11βHSD1 in pCMVHyg
Assay: HeLa GRE4-βGal/11βHSD1 cell reporter assay (cortisone to cortisol conversion, β-galactosidase readout)
Format: cell-based
Conditions: HeLa GRE4-βGal/11βHSD1 cells, cortisone 1 μM, overnight incubation
Text: HeLa cells (human cervical carcinoma derived cells) were stably transfected with a construct containing four copies of the glucocorticoid response element (GRE) linked to a beta-galactosidase reporter gene (3 kb lac Z gene derived from pSV-B-galactosidase). These cells were then further stably transfected with a construct containing fill-length human 11βHSD1 enzyme (in pCMVHyg) to create GRE4-βGal/11βHSD1 cells. The principal of the assay is as follows. Cortisone is freely taken up by the cells and is converted to cortisol by 11βHSD1 oxo-reductase activity and cortisol (but not cortisone) binds to and activates the glucocorticoid receptor. Activated glucocorticoid receptor then binds to the GRE and initiates transcription and translation of β-galactosidase. Enzyme activity can then be assayed with high sensitivity by colourimetric assay.
Cells were routinely cultured in DMEM (Invitrogen, Paisley, Renfrewshire, UK) containing 10% foetal calf serum (LabTech), 1% glutamine (Invitrogen), 1% penicillin & streptomycin (Invitrogen), 0.5 mg/ml G418 (Invitrogen) & 0.5 mg/ml hygromycin (Boehringer). Assay media was phenol red free-DMEM containing 1% glutamine, 1% penicillin & streptomycin.
Compounds (1 mM) to be tested were dissolved in dimethyl sulphoxide (DMSO) and serially diluted into assay media containing […]. […]
A cocktail (25 μl) consisting of 10× Z-buffer (600 mM Na2HPO4, 400 mM NaH2PO4.2H2O, 100 mM KCl, 10 mM MgSO4.7H2O, 500 mM, β-mercaptoethanol, pH 7.0), SDS (0.2%), chlorophenol red-β-D-galactopyranoside (5 mM, Roche Diagnostics) was added per well and plates incubated at 37° C. for 34 hours. β-Galactosidase activity was indicated by a yellow to red colour change (absorbance at 570 nm) measured using a Tecan Spectrafluor Ultra.
The calculation of median inhibitory concentration (IC50) values for the inhibitors was performed using Origin 6.0 (Microcal Software, Northampton Mass. USA). Dose response curves for each inhibitor were plotted as OD units at each inhibitor concentration with relation to a maximum signal (cortisone, no compound) and IC50 values calculated. […]

T1 sequence (P28845 whole entry): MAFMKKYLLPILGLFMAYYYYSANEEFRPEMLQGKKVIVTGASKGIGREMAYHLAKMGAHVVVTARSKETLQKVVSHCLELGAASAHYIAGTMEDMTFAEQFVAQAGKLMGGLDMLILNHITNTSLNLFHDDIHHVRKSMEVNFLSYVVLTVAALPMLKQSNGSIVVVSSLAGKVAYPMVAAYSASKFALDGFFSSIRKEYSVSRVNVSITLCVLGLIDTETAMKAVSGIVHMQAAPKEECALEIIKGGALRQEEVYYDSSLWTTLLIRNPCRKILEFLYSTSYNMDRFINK

IC50 [nM]	SMILES
10	CC(C)S(=O)(=O)N1CCCC(C(=O)c2ccc(F)cc2)C1 (stereo not drawn) [Example 13]
83	O=C(c1ccc(F)cc1)C1CCCN(C(=O)Cc2ccc(F)cc2)C1 (stereo not drawn) [Example 17]
206	O=C(c1ccc(F)cc1)C1CCCN(C(=O)c2ccc(Cl)s2)C1 (stereo not drawn) [Example 18]
